≈ marks a conversion by molar mass, not a printed value.

The source of these data is DBAASP.

Among the test systems are Yersinia enterocolitica; Salmonella sp.; Escherichia coli; Escherichia coli 078; Escherichia coli K88; Escherichia coli UB1005; Escherichia coli K99.
What all share (assay): ≥ marks a high value that may be exact or a test limit, other limits are often not marked, values filed in µg/mL are converted to µM
The test system of assay [1] is Pseudomonas aeruginosa ATCC 27853.
The subject of assay [2] is Staphylococcus aureus ATCC 29213.
The test system of assay [3] is Enterococcus faecalis ATCC 29212.
Assay [4] deals with Salmonella enterica subsp. enterica serovar Pullorum C79-13.
Assay [5] has as its system Salmonella enterica subsp. enterica serovar Typhimurium C77-31.
For assay [6], the system named is Bacillus subtilis CMCC 63501.
For assay [7], the system named is Staphylococcus epidermidis ATCC 12228.
The test system of assay [8] is Escherichia coli ATCC 25922.
The subject of assay [9] is Salmonella enterica subsp. enterica serovar Enteritidis.
Assay [10] has as its system Cryptococcus neoformans ATCC 32264.
In assay [11] the test system is Candida albicans ATCC 10231.
The test system of assay [12] is Staphylococcus aureus ATCC 43300.
Assay [13] deals with Staphylococcus aureus ATCC 33591.
Assay [14] has as its system Bacillus subtilis DSM 347.
The subject of assay [15] is Franconibacter helveticus DSM 18396.
The subject of assay [16] is Escherichia coli DH5alpha.
Assay [17] deals with Kocuria rhizophila DSM 348.
In assay [18] the test system is Bacillus subtilis ATCC 6051.
Assay [19] concerns Escherichia coli NEB5alpha.
Assay [20] deals with Staphylococcus aureus ATCC 25923.
The subject of assay [21] is Staphylococcus epidermidis ATCC 35984.
The subject of assay [22] is Salmonella enterica subsp. enterica serovar Typhimurium ATCC 14028.

Usually MIC stands for the least concentration at which growth counts as inhibited. Read a low MIC as inhibition by little substance. With `NC(=O)[C@@H]1CCCN1C(=O)[C@H](CCCN=C(N)N)NC(=O)[C@H](CS)NC(=O)[C@H](Cc1ccccc1)NC(=O)[C@H](CCCN=C(N)N)NC(=O)[C@H](CCCN=C(N)N)NC(=O)[C@H](CCCN=C(N)N)NC(=O)[C@H](CS)NC(=O)[C@H](CCCN=C(N)N)NC(=O)[C@@H]1CCCN1` [PRCRRRFCRP], the minimal inhibitory concentration (MIC) was > 128 µM in assay [1]; > 128 µM in assay [2]; > 128 µM in [3]; ≥ 128 µM in [4]; ≥ 128 µM in assay [5]; 16 µM (≈ 21.5 µg/mL) in [6]. Also, the results for the MIC in assay [7] and in assay [8] were > 128 µM and 16 µM (≈ 21.5 µg/mL), respectively.

Take `CC[C@H](C)[C@H](NC(=O)[C@H](CCCNC(=N)N)NC(=O)[C@@H](NC(=O)[C@H](CCC(N)=O)NC(=O)[C@@H](N)CCCNC(=N)N)[C@@H](C)CC)C(=O)N[C@@H](Cc1c[nH]c2ccccc12)C(=O)N[C@@H](Cc1ccccc1)C(=O)N[C@@H](CCC(N)=O)C(=O)N[C@@H](CC(N)=O)C(=O)N[C@@H](CCCNC(=N)N)C(=O)N[C@@H](CCCNC(=N)N)C(=O)N[C@@H](CCSC)C(=O)N[C@@H](CCCNC(=N)N)C(=O)N[C@@H](Cc1c[nH]c2ccccc12)C(=O)N[C@@H](CCCNC(=N)N)C(=O)N[C@@H](CCCNC(=N)N)C(N)=O` [RQIRIWFQNRRMRWRR]: the MIC in assay [1] is > 50 µM; in [2], > 50 µM; against Yersinia enterocolitica, ≥ 50 µM; against Salmonella sp., ≥ 50 µM; in assay [9] it was 25 µM (≈ 58.9 µg/mL); in [10], ≥ 50 µM. Moreover, the MIC is 100 µM (≈ 236 µg/mL) in assay [11], 25 µM (≈ 58.9 µg/mL) in the assay on Escherichia coli, > 50 µM in assay [12] and 16 µM (≈ 37.7 µg/mL) in [13].

Take `CC[C@H](C)[C@H](NC(=O)CN)C(=O)NCC(=O)N[C@@H](CCCCN)C(=O)N[C@@H](Cc1ccccc1)C(=O)N[C@@H](C)C(=O)N[C@@H](Cc1cnc[nH]1)C(=O)N[C@@H](CO)C(=O)N[C@@H](C)C(=O)N[C@@H](CCCCN)C(=O)N[C@@H](CCCCN)C(=O)N[C@@H](Cc1ccccc1)C(=O)NCC(=O)N[C@@H](CCCCN)C(=O)N[C@@H](C)C(=O)N[C@@H](Cc1ccccc1)C(=O)N[C@H](C(=O)NCC(=O)N[C@@H](CCC(=O)O)C(=O)N[C@H](C(=O)N[C@@H](CCSC)C(=O)N[C@@H](CC(N)=O)C(=O)N[C@@H](CO)C(=O)O)[C@@H](C)CC)C(C)C` [GIGKFAHSAKKFGKAFVGEIMNS]: the MIC was ≥ 32 µM in assay [14], ≥ 128 µM in assay [15], ≥ 128 µM in assay [16] and ≥ 256 µM in assay [17].

`CC[C@H](C)[C@H](NC(=O)[C@H](C)NC(=O)CNC(=O)[C@H](CCCCN)NC(=O)[C@H](CCC(=O)O)NC(=O)[C@H](CCC(=O)O)NC(=O)[C@H](CC(=O)O)NC(=O)[C@H](CCC(=O)O)NC(=O)[C@H](CC(=O)O)NC(=O)[C@H](CCCN=C(N)N)NC(=O)CNC(=O)[C@H](CCC(N)=O)NC(=O)[C@H](CC(C)C)NC(=O)[C@H](CCCCN)NC(=O)[C@H](CC(=O)O)NC(=O)[C@@H](NC(=O)[C@@H](NC(=O)[C@H](Cc1cnc[nH]1)NC(=O)[C@@H](N)CCCN=C(N)N)[C@@H](C)CC)C(C)C)C(=O)N[C@H](C(=O)N[C@@H](CCCCN)C(=O)N[C@H](C(=O)N[C@@H](CCCCN)C(=O)NCC(=O)NCC(=O)N[C@@H](CC(C)C)C(=O)O)C(C)C)C(C)C` [RHIVDKLQGRDEDEEKGAIVKVKGGL]: the minimum inhibitory concentration (MIC) in assay [18] and in assay [19] was ≥ 500 µM each time.

Turning to `CC(C)C[C@H](N)C(=O)N[C@@H](CCCCN)C(=O)N[C@@H](CCCCN)C(=O)N[C@@H](C)C(=O)N[C@@H](CCCCN)C(=O)N[C@@H](CCCCN)C(=O)N[C@@H](Cc1ccccc1)C(=O)NCC(=O)N[C@@H](CCCCN)C(=O)N[C@@H](C)C(=O)N[C@@H](Cc1ccccc1)C(=O)N[C@H](C(N)=O)C(C)C` [LKKAKKFGKAFV], the MIC is 265 µM (≈ 362 µg/mL) in [1], > 375 µM in assay [20], ≥ 375 µM in assay [13] and ≥ 375 µM in [21].

As for `CC[C@H](C)[C@H](N)C(=O)N[C@H](C(=O)N[C@@H](CC(C)C)C(=O)N[C@@H](CC(N)=O)C(=O)N1CCC[C@H]1C(=O)N[C@@H](Cc1c[nH]c2ccccc12)C(=O)N[C@@H](CC(=O)O)C(=O)N[C@@H](CCC(N)=O)C(=O)N[C@H](C(=O)N[C@@H](CCCCN)C(=O)O)C(C)C)C(C)C` [IVLNPWDQVK], the MIC in assay [18] is ≥ 1360 µM; in assay [19], ≥ 681 µM; in assay [8], 1360 µM (≈ 1650 µg/mL).

On to `CC[C@H](C)[C@H](NC(=O)[C@H](CCC(N)=O)NC(=O)[C@@H](N)CCCN=C(N)N)C(=O)N[C@@H](CCCN=C(N)N)C(=O)N[C@@H](CCCN=C(N)N)C(=O)N[C@@H](Cc1c[nH]c2ccccc12)C(=O)N[C@@H](Cc1c[nH]c2ccccc12)C(=O)N[C@@H](CCC(N)=O)C(=O)N[C@@H](CCCN=C(N)N)C(N)=O` [RQIRRWWQR], for which the minimum inhibitory concentration (MIC) was > 50 µM in assay [1]; 36.1 µM (≈ 50 µg/mL) in assay [2]; 18.1 µM (≈ 25 µg/mL) in the assay on Yersinia enterocolitica; 18.1 µM (≈ 25 µg/mL) with Salmonella sp.; 18.1 µM (≈ 25 µg/mL) in [9]; 25 µM (≈ 34.6 µg/mL) in assay [10]. The minimal inhibitory concentration (MIC) in [11] was 10 µM (≈ 13.8 µg/mL); in the assay on Escherichia coli, 9.03 µM (≈ 12.5 µg/mL); in assay [8] it was 18.1 µM (≈ 25 µg/mL); in [12], 18.1 µM (≈ 25 µg/mL).

In the case of `CC[C@H](C)[C@H](NC(=O)CN)C(=O)NCC(=O)N[C@@H](CCCCN)C(=O)N[C@@H](Cc1ccccc1)C(=O)N[C@@H](CC(C)C)C(=O)N[C@@H](Cc1cnc[nH]1)C(=O)N[C@@H](CO)C(=O)N[C@@H](C)C(=O)N[C@@H](CCCCN)C(=O)N[C@@H](CCCCN)C(=O)N[C@@H](Cc1ccccc1)C(=O)NCC(=O)N[C@@H](CCCCN)C(=O)N[C@@H](C)C(=O)N[C@@H](Cc1ccccc1)C(=O)N[C@H](C(=O)NCC(=O)N[C@@H](CCC(=O)O)C(=O)N[C@@H](C)C(=O)N[C@@H](CCSC)C(=O)N[C@@H](CC(N)=O)C(=O)N[C@@H](CO)C(=O)O)C(C)C` [GIGKFLHSAKKFGKAFVGEAMNS], the MIC is 16 µM (≈ 38.8 µg/mL) in assay [14], ≥ 64 µM in assay [15], ≥ 128 µM in [16] and ≥ 256 µM in [17].

For the compound `CC[C@H](C)[C@H](N)C(=O)NCC(=O)N[C@@H](CCCCN)C(=O)N[C@@H](Cc1ccccc1)C(=O)N[C@@H](CC(C)C)C(=O)N[C@@H](CCCCN)C(=O)N[C@@H](CCCCN)C(=O)N[C@@H](C)C(=O)N[C@@H](CCCCN)C(=O)N[C@@H](CCCCN)C(=O)N[C@@H](Cc1ccccc1)C(=O)NCC(N)=O` [IGKFLKKAKKFG], the MIC in assay [1] was 133 µM (≈ 181 µg/mL); in assay [20], > 375 µM; in assay [13], ≥ 375 µM; in assay [21], ≥ 188 µM.

For the compound `CC[C@H](C)[C@H](NC(=O)[C@H](Cc1c[nH]c2ccccc12)NC(=O)[C@H](CCCCN)NC(=O)[C@H](Cc1c[nH]c2ccccc12)NC(=O)[C@@H](NC(=O)[C@H](CCCCN)NC(=O)CNC(=O)[C@@H](NC(=O)[C@H](CCCCN)NC(=O)[C@H](CCCCN)NC(=O)[C@H](Cc1c[nH]c2ccccc12)NC(=O)[C@@H](N)CCCN=C(N)N)[C@@H](C)CC)C(C)C)C(N)=O` [RWKKIGKVWKWI], the MIC in [2] was 32 µM (≈ 52.1 µg/mL); in the assay on Escherichia coli 078, 8 µM (≈ 13 µg/mL); with Escherichia coli K88, 2 µM (≈ 3.25 µg/mL); in [3], 32 µM (≈ 52.1 µg/mL); in [4], 2 µM (≈ 3.25 µg/mL); in [5] it was ≥ 32 µM. The minimal inhibitory concentration (MIC) in [22] is 32 µM (≈ 52.1 µg/mL); in [20] it was 32 µM (≈ 52.1 µg/mL); in assay [6], 8 µM (≈ 13 µg/mL); in assay [7], 64 µM (≈ 104 µg/mL); in the assay on Escherichia coli UB1005 it was 8 µM (≈ 13 µg/mL); in [8], 8 µM (≈ 13 µg/mL). In addition, the minimal inhibitory concentration (MIC) with Escherichia coli K99 was found to be 4 µM (≈ 6.51 µg/mL).
